In data set [1] the test system is binding of dengue virus to K562 cells. Put plainly: Inhibitory activity on binding of dengue virus to K562 cell surface, flow cytometer (Example 3). It counts as cell-based. As for the experimental part: After K562 cells were cultured until confluent, the cells were dispensed into a microtube to be 4×10^5 cells/0.1 ml. After this microtube was centrifuged at 4° C. for 3 minutes at 3,500 rpm, the obtained cell pellet was washed once with 1 ml of PBS containing 0.1% BSA. After it was further centrifuged at 4° C. for 3 minutes at 3,500 rpm, a dengue virus stock solution was diluted with PBS containing 0.1% BSA to the concentrations of 5,000 units/ml, 2,000 units/ml, 1,000 units/ml, and 500 units/ml, respectively. Then, 100 μl of each of the solutions was added to the K562 cells, and reacted at 4° C. for 1 hour.
Incidentally, as virus(−), a solution to which only PBS containing 0.1% BSA was added in the same amount was used.
After the reaction, the cells were washed 3 times with 1 ml of chilled PBS(−), 100 μl of a solution of human anti-flavivirus antiserum (lot No. 1), which had been diluted to 200-fold, was added, respectively, as a primary antibody, well suspended, and reacted at 4° C. for 30 minutes. […]
K562 cells (1×10^5 cells) were seeded on a 24-well culture plate, and the total volume was made up to 1 ml with RPMI medium. […] The solution was transferred to a microtube, and virus binding was evaluated by the method described in (1).

The test system is the same in data set [2]. Put plainly: Inhibition of binding of dengue virus to K562 cell surface, flow cytometer (Example 2). Format: cell-based. The protocol: After K562 cells were cultured until confluent, the cells were dispensed into a microtube to be 2×10^5 cells/0.1 ml. After this microtube was centrifuged at 4° C. for 2 minutes at 10,000 rpm, the obtained cell pellet was washed once with 1 ml of PBS containing 0.1% BSA. After a dengue virus solution (2,000 units/ml) and PG (0, 100, 200 or 500 μM) or GA1 (500 μM), which is a reference glycolipid, were preincubated in PBS containing 0.1% BSA at 4° C. for 1 hour, 100 μl of each of the solutions was added to K562 cells, and the virus was allowed to bind to the cell at 4° C. for 1 hour. Incidentally, as virus(−), only PBS containing 0.1% BSA was added in the same amount. After the reaction, the cells were washed 3 times with 1 ml of chilled PBS(−), 100 μl of a solution of human anti-flavivirus antiserum (lot No. 1), which had been diluted to 200-fold, was added, respectively, as a primary antibody, well suspended, and reacted at 4° C. for 30 minutes. The cells were washed 3 times with 1 ml of chilled PBS(−), and 100 μl of a solution of a FITC-labeled goat anti-human IgG (Zymed), which had been diluted to 50-fold, was added, respectively, as a secondary antibody and shielded from light. Then, they were reacted at 4° C. for 30 minutes. […]

Data set [3] concerns dengue virus (D2Th7 strain). Put plainly: TLC/virus-binding assay of glycolipids. As to conditions: HPLC fractions of the neutral glycolipid fraction of mosquito-derived C6/36 cells. As for the experimental part:
The neutral glycolipid fractions I to IV obtained in the foregoing (c) (10 μl each), and as a reference standard, LacCer (1 μl), CTH (2 μl), paragloboside (PG: Galβ1-4GlcNAcβ1-3Galβ1-4Glcβ1-1′Cer) (2 μl), GA1 (Galβ1-3GalNAcβ1-4Galβ1-4Glcβ1-1′Cer) (2 μl), globoside (GalNAcβ1-3Galα1-4Galβ1-4Glcβ1-1′Cer) (2 μl) were spotted on TLC plates (Polygram Sil G), developed with acetone once, and developed with CHCl3/MeOH/12 mM MgCl2 (50/40/10, by vol). Then, orcinol reagent was sprayed and the plate was heated at 110° C., whereby color reaction was developed. With regard to the neutral glycolipid fractions I to IV, TLC/virus-binding assay was carried out by the method described above.
The neutral glycolipid fraction II-2 (10 μl) obtained by the foregoing method described in (1), PI (10 μl), PG (2 μl) and globoside (1 μl) were spotted on a TLC plate (Polygram Sil G), developed with acetone once, and developed with CHCl3/MeOH/12 mM MgCl2 (50/40/10, by vol). […]
Subsequently, 2.5 ml of human anti-flavivirus antiserum diluted to 1,000-fold with Solution A was added and reacted at room temperature for 1 hour. […] Finally, the plates were reacted with 2.5 ml of a color-developing substrate solution (0.1 M citrate buffer pH 6.0 (2.5 ml), 0.11 M 4-chloro-1-naphthol in CH3CN (50 μl), 0.06 M DEPDA in CH3CN (50 μl), 30% H2O2 (5 μl)), and bound virus particles were detected. […]

In a further data set the test system is dengue virus infection. As to conditions: rhesus monkeys; cited from earlier work.
Data set [4] relates to infection of K562 cells with dengue virus. Put plainly: Virus infection test of K562 cells with oligosaccharide-pretreated dengue virus, antigen positive cells by flow cytometer. Format: cell-based. As to conditions: virus pretreated with oligosaccharide at 28° C. for 30 minutes, infection at 37° C. for 2 hours. The protocol:
In any cases, 1 mM stock solution was prepared with sterile PBS(−). This solution was appropriately diluted and used for the infection inhibition test.
Dilution was carried out with serum-free RPMI medium (SF-RPMI) containing 0.2% BSA so as to give a final virus concentration of 3×105 FFU (focus forming unit)/sample, and the solution was stirred well and placed on ice.
To 630 μl (virus volume per 1 sample) of the dengue virus solution prepared in (2) described above, an equivalent amount of a diluted solution containing an oligosaccharide was added, stirred well, and incubated at 28° C. for 30 minutes. This solution was used as a pretreated virus solution.
In addition, as a negative control, the one obtained by mixing PBS(−) with the virus solution was used.
After K562 cells were washed once with SF-RPMI, the cells were prepared at 1×10^6 cells/ml with 0.1% BSA-SF-RPMI. This cell suspension was dispensed in 100 μl aliquots into tubes. Thereto was added the pretreated virus solution, stirred gently, and infection of cells was carried out at 37° C. for 2 hours. During this time, the solution in the tube was gently stirred every 20 minutes. After the solution was centrifuged at 3,400 rpm for 3 minutes, the virus solution was removed, and the cells were washed 3 times with 0.1% BSA-SF-RPMI. To the cell pellet, 2 ml of RPMI medium containing 2% serum (2% FCS-RPMI) was added, and suspended. […]

Regarding “Galβ1-3GalNAcβ1-4Galβ1-4Glcβ1-1′Cer [GA1, reference compound]”, in data set [1] (negative control, GA1 500 μM), the “effect on binding of dengue virus to the cell surface (FIG. 6)” value is listed as “not affected at all”. The “inhibition of binding of dengue virus to K562 cells (FIG. 5)” value in data set [2] (500 μM, preincubated with virus 2,000 units/ml at 4° C. for 1 hour) is “could not inhibit”.
For “Galβ1-4GlcNAcβ1-3Manβ1-4Glcβ1-1Cer [Fraction 15]”, the “binding of purified glycolipids to dengue virus on TLC plate (FIG. 8)” value in data set [3] is recorded as “binds to the virus very strongly”.
In the case of `NC(=O)c1ncn([C@@H]2O[C@H](CO)[C@@H](O)[C@H]2O)n1` [ribavirin], in the data set with dengue virus infection, the adverse effects induced entry was “anemia or thrombocytosis” and the “preventive effect against dengue virus infection” value is reported as “did not show a preventive effect”.
Regarding `CC(=O)N[C@H]1[C@H](O[C@H]2[C@@H](O)[C@@H](CO)O[C@@H](O[C@H]3[C@H](O)[C@@H](O)C(O)O[C@@H]3CO)[C@@H]2O)O[C@H](CO)[C@@H](O[C@@H]2O[C@H](CO)[C@H](O)[C@H](O)[C@H]2O)[C@@H]1O` (stereo partly drawn) [paragloboside saccharide chain, Galβ1-4GlcNAcβ1-3Galβ1-4Glc], the “inhibition of infection of K562 cells with dengue virus (FIG. 9)” value in data set [4] is “inhibited the infection of K562 cells with dengue virus depending on the concentration”.
Take “GlcNAcβ1-3Manβ1-4Glcβ1-1Cer [Fraction 13]”: the “binding of purified glycolipids to dengue virus on TLC plate (FIG. 8)” value in data set [3] is reported as “binds to the virus very strongly”.
For “Galβ1-4GlcNAcβ1-3Galβ1-4Glcβ1-1′Cer [paragloboside]”, the “inhibition of the binding of dengue virus to K562 cells (FIG. 6)” value in data set [1] (paragloboside 100, 200 or 500 μM, virus 2,000 units/ml) is recorded as “inhibition of the binding of dengue virus to K562 cells is caused depending on the concentration of paragloboside”. In addition, in data set [2] (PG 100, 200 or 500 μM preincubated with virus 2,000 units/ml at 4° C. for 1 hour), the “inhibition of binding of dengue virus to K562 cells (FIG. 5)” value is “inhibited depending on the concentration of PG”.

The values above are taken from patent US20060104985A1, “Dengue virus infection inhibitor” (priority 2002, published 2006).
